Structures can show the parent of a compound that is named as a salt. Where two headings read alike, the source gives them in different places.
Experiments:
5HT7 receptors [1] = molecular target: T1, 5HT7 receptors (Homo sapiens, UniProt P34969); test: Functional data (Kb), HitHunter cAMP enzyme fragment complementation assay with 5-HT as agonist; type: cell-based; parameters: expressed in transfected cells; G418 selection)
Procedure: Functional efficacy of the compounds of the disclosure on 5-HT7 serotonin receptors were measured in a cell based cAMP enzyme fragment complementation assay using the HitHunter cAMP assay (DiscoveRx). Cells stably expressing human 5HT7 receptors were plated in 96-well plates at 4000 cells/well, 16-20 hours prior to assay in growth media (Ultraculture medium, 2 mM GlutaMax and G418 1 mg/mL. Serial dilutions of the agonist, 5-hydroxytryptamine (5-HT), were prepared in a final concentration range of 10 μM to 10 nM. Compounds of the disclosure were prepared in 3-fold serial dilutions to obtain a final concentration range of 10 μM to 0.1 nM. Compounds of the disclosure are tested for agonist activity in the absence of 5-HT and antagonist activity in the presence of 5-HT. For the cAMP assay, the protocol was followed according to the instructions provided by the supplier. Briefly, cells were incubated with a compound of the disclosure for 30 minutes at 37° C. prior to addition of EC70 concentration of 5-HT. After an additional 30 minutes, cAMP antibody/cell lysis solution was added (20 μL/well) and incubated for 60 minutes at room temperature. cAMP XS+EA reagent is added (20 μL/well) and incubated for 2 hours at room temperature. Luminescence was read on the Envision Multilabel plate reader.

5HT7 receptors [2] = molecular target: T1, 5HT7 receptors; test: Radiolabeled binding (IC50 and Ki), [3H]LSD competition on membranes of cells expressing recombinant 5HT7 receptors; parameters: expressed in transfected cells
Procedure: Radiolabel Binding Studies for Serotonin 5HT7 Receptors, Method 1:
(§1) A solution of the compound of the disclosure to be tested is prepared as a 1-mg/ml stock in Assay Buffer or DMSO according to its solubility. A similar stock of the reference compound chlorpromazine is also prepared as a positive control. Eleven dilutions (5×assay concentration) of the compound of the disclosure and chlorpromazine are prepared in the Assay Buffer by serial dilution to yield final corresponding assay concentrations ranging from 10 pM to 10 μM.
A stock concentration of 5 nM [^3H]LSD (lysergic acid diethyl amide) is prepared in 50 mM Tris-HCl, 10 mM MgCl2, 1 mM EDTA, pH 7.4 (Assay Buffer). Aliquots (50 μl) of radioligand are dispensed into the wells of a 96-well plate containing 100 μl of Assay Buffer. Duplicate 50-μl aliquots of the compound of the disclosure test and chlorpromazine positive control reference compound serial dilutions are added.
Membrane fractions of cells expressing recombinant 5HT7 receptors (50 μL) are dispensed into each well. The membranes are prepared from stably transfected cell lines expressing 5HT7 receptors cultured on 10-cm plates by harvesting PBS-rinsed monolayers, resuspending and lysing in chilled, hypotonic 50 mM Tris-HCl, pH 7.4, centrifuging at 20,000×g, decanting the supernatant and storing at −80° C.; the membrane preparations are resuspended in 3 ml of chilled Assay Buffer and homogenized by several passages through a 26 gauge needle before using in the assay.
The 250-μl reactions are incubated at room temperature for 1.5 hours, then harvested by rapid filtration onto 0.3% polyethyleneimine-treated, 96-well filter mats using a 96-well Filtermate harvester. Four rapid 500-μl washes are performed with chilled Assay Buffer to reduce non-specific binding. The filter mats are dried, then scintillant is added to the filters and the radioactivity retained on the filters is counted in a Microbeta scintillation counter.
Raw data (dpm) representing total radioligand binding (i.e., specific+non-specific binding) are plotted as a function of the logarithm of the molar concentration of the competitor (i.e., test or reference compound). Non-linear regression of the normalized (i.e., percent radioligand binding compared to that observed in the absence of test or reference compound) raw data is performed in Prism 4.0 (GraphPad Software) using the built-in three parameter logistic model describing ligand competition binding to radioligand-labeled sites: y=bottom+[(top-bottom)/(1+10×−logIC50)] where bottom equals the residual radioligand binding measured in the presence of 10 μM reference compound (i.e., non-specific binding) and top equals the total radioligand binding observed in the absence of competitor. The log IC50 (i.e., the log of the ligand concentration that reduces radioligand binding by 50%) is thus estimated from the data and used to obtain the Ki by applying the Cheng-Prusoff approximation: Ki=IC50/(1+[ligand]/KD) • where [ligand] equals the assay radioligand concentration and KD equals the affinity constant of the radioligand for the target receptor.
^1Radiolabeled Binding (IC50 and K1)
as §1, with “tested was” for “tested is”, “chlorpromazine was” for “chlorpromazine is”, “dilutions (5× assay” for “dilutions (5×assay”, “chlorpromazine were” for “chlorpromazine are”, “[…]” for “10 pM”
A stock concentration of 5 nM [^3H]LSD (lysergic acid diethyl amide) was prepared in 50 mM Tris-HCl, 10 mM MgCl2, 1 mM EDTA, pH 7.4 (Assay Buffer). Aliquots (50 μl) of radioligand were dispensed into the wells of a 96-well plate containing 100 μl of Assay Buffer. […]

[3] = cAMP assay, cells stably expressing human 5HT7 receptors, antagonist activity in the presence of EC70 5-HT, read-out: Kb (nM)^2
[4] = [3H]LSD radioligand, membranes of cells expressing recombinant 5HT7 receptors, read-out: IC50 (nM)^1
[5] = Table 35, scaffold drawing 615, antagonist mode vs 5-HT, read-out: Kb
[6] = Table 35, scaffold drawing 615, read-out: IC50
[7] = Table 37, scaffold drawing 617, antagonist mode vs 5-HT, read-out: Kb

T1 sequence (P34969 whole entry, the tested form may be a part): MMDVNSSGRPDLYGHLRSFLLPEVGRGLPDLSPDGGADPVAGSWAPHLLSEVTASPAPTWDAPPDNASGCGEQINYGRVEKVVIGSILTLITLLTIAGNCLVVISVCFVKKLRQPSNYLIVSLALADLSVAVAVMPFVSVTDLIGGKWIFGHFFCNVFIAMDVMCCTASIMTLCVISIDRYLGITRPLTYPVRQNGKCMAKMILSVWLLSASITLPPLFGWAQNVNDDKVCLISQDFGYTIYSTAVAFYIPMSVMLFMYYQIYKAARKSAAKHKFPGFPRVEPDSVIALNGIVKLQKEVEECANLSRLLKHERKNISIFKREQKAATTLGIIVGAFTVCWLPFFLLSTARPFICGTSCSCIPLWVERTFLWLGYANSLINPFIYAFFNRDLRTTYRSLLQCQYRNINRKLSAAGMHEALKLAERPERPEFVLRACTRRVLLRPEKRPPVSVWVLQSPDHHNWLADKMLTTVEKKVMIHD

## CCC1(CC)CC(CCN2CCN(c3ccc(C)cc3N3CCOCC3)CC2)NC1=O (stereo not drawn) [3,3-diethyl-5-(2-(4-(4-methyl-2-morpholinophenyl)piperazin-1-yl)ethyl)pyrrolidin-2-one]
5HT7 receptors [1]; [3]
  Kb: 59.3 nM
5HT7 receptors [2]; [4]
  IC50: 74 nM

## CCC1(CC)CC(CCN2CCN(c3ccc(C)cc3)CC2)NC1=O (stereo not drawn) [3,3-diethyl-5-(2-(4-(p-tolyl)piperazin-1-yl)ethyl)pyrrolidin-2-one]
5HT7 receptors [1]; [3]
  Kb: 24.1 nM
5HT7 receptors [2]; [4]
  IC50: 28 nM

## CCC1(CC)CC(CCN2CCN(c3ccccc3)CC2)NC1=O (stereo not drawn) [3,3-diethyl-5-(2-(4-phenylpiperazin-1-yl)ethyl)pyrrolidin-2-one]
5HT7 receptors [1]; [3]
  Kb: 17.8 nM
5HT7 receptors [2]; [4]
  IC50: 68 nM

## CCC1(CC)CC(CCN2CCN(c3ccc(Cl)cc3)CC2)NC1=O (stereo not drawn) [5-(2-(4-(4-chlorophenyl)piperazin-1-yl)ethyl)-3,3-diethylpyrrolidin-2-one]
5HT7 receptors [1]; [3]
  Kb: 54.6 nM
5HT7 receptors [2]; [4]
  IC50: 13 nM

## CCC1(CC)C[C@H](CCN2CCN(c3ccc(F)cc3)CC2)NC1=O [(R)-3,3-diethyl-5-(2-(4-(4-fluorophenyl)piperazin-1-yl)ethyl)pyrrolidin-2-one]
5HT7 receptors [1]; [5]
  Kb: 0.81 nM
5HT7 receptors [2]; [6]
  IC50: 12.3 nM

## CCC1(CC)C[C@H](CCN2CCN(c3ccc(C)cc3)CC2)NC1=O [(R)-3,3-diethyl-5-(2-(4-(p-tolyl)piperazin-1-yl)ethyl)pyrrolidin-2-one]
5HT7 receptors [1]; [5]
  Kb: 8.43 nM
5HT7 receptors [2]; Table 35, scaffold drawing 615
  Ki: 11 nM

## CCC1(CC)C[C@H](CN2CCN(c3ccc(C)cc3N3CCOCC3)CC2)NC1=O [(R)-3,3-diethyl-5-((4-(4-methyl-2-morpholinophenyl)piperazin-1-yl)methyl)pyrrolidin-2-one formate]
5HT7 receptors [1]; [5]
  Kb: 43.8 nM
5HT7 receptors [2]; Table 35, scaffold drawing 615
  Ki: 132 nM

## CCC1(CC)C[C@H](CCN2CCN(c3ccc(Cl)c(Cl)c3)CC2)NC1=O [(R)-5-(2-(4-(3,4-dichlorophenyl)piperazin-1-yl)ethyl)-3,3-diethylpyrrolidin-2-one]
5HT7 receptors [1]; [5]
  Kb: 6.19 nM
5HT7 receptors [2]; [6]
  IC50: 82.8 nM

## CCC1(CC)C[C@H](CCN2CCN(c3ccc(F)c(Cl)c3)CC2)NC1=O [(R)-5-(2-(4-(3-chloro-4-fluorophenyl)piperazin-1-yl)ethyl)-3,3-diethylpyrrolidin-2-one]
5HT7 receptors [1]; [5]
  Kb: 1.92 nM
5HT7 receptors [2]; [6]
  IC50: 8.7 nM

## CCC1(CC)C[C@H](CCN2CCN(c3cccc(Cl)c3)CC2)NC1=O [(R)-5-(2-(4-(3-chlorophenyl)piperazin-1-yl)ethyl)-3,3-diethylpyrrolidin-2-one]
5HT7 receptors [1]; [5]
  Kb: 1.38 nM
5HT7 receptors [2]; [6]
  IC50: 9.9 nM

## CCC1(CC)C[C@@H](CCN2CCN(c3ccc(C)cc3)CC2)NC1=O [(S)-3,3-diethyl-5-(2-(4-(p-tolyl)piperazin-1-yl)ethyl)pyrrolidin-2-one]
5HT7 receptors [1]; Table 36, scaffold drawing 616, antagonist mode vs 5-HT, read-out: Kb
  Kb: 58.1 nM
5HT7 receptors [2]; Table 36, scaffold drawing 616
  Ki: 79 nM

## CC(=O)N1CCC2(CC1)C[C@H](CCN1CCN(c3cccc(Cl)c3)CC1)NC2=O [drawing 617 n=2 R3=3-Cl-Phenyl R7=Acetyl, (R)-8-acetyl-3-(2-(4-(3-chlorophenyl)piperazin-1-yl)ethyl)-2,8-diazaspiro[4.5]decan-1-one]
5HT7 receptors [1]; [7]
  Kb: 5.04 nM
5HT7 receptors [2]; Table 37, scaffold drawing 617
  Ki: 63 nM

## CS(=O)(=O)N1CCC2(CC1)C[C@H](CCN1CCN(c3cccc(Cl)c3)CC1)NC2=O [drawing 617 n=2 R3=3-Cl-Phenyl R7=MeSO2, (R)-3-(2-(4-(3-chlorophenyl)piperazin-1-yl)ethyl)-8-(methylsulfonyl)-2,8-diazaspiro[4.5]decan-1-one]
5HT7 receptors [1]; [7]
  Kb: 13.5 nM
5HT7 receptors [2]; Table 37, scaffold drawing 617
  Ki: 107 nM

## CC(=O)N1CCC2(CC1)C[C@H](CCN1CCN(c3ccc(F)cc3)CC1)NC2=O [drawing 617 n=2 R3=4-F-Phenyl R7=Acetyl, (R)-8-acetyl-3-(2-(4-(4-fluorophenyl)piperazin-1-yl)ethyl)-2,8-diazaspiro[4.5]decan-1-one]
5HT7 receptors [1]; [7]
  Kb: 14.4 nM
5HT7 receptors [2]; Table 37, scaffold drawing 617
  Ki: 76 nM

## CS(=O)(=O)N1CCC2(CC1)C[C@H](CCN1CCN(c3ccc(F)cc3)CC1)NC2=O [drawing 617 n=2 R3=4-F-Phenyl R7=MeSO2, (R)-3-(2-(4-(4-fluorophenyl)piperazin-1-yl)ethyl)-8-(methylsulfonyl)-2,8-diazaspiro[4.5]decan-1-one]
5HT7 receptors [1]; [7]
  Kb: 30.7 nM
5HT7 receptors [2]; Table 37, scaffold drawing 617
  Ki: 89 nM

— patent US12559494B2, “Functionalized lactams as modulators of the 5-hydroxytryptamine receptor 7 and their method of use” (Temple University - Of The Commonwealth System of Higher …, priority 2018, dated 2026)
